In US8486382B2, “Method for treating cervical cancer” (ZymoGenetics, Inc., priority 2001, dated 2013):

B1: IL-20: Interleukin-20 (formally called Zcyto10); human polypeptide of 176 amino acids, SEQ ID NO:2 (protein, listed as Homo sapiens)
chain: MKASSLAFSLLSAAFYLLWTPSTGLKTLNLGSCVIATNLQEIRNGFSDIRGSVQAKDGNIDIRILRRTESLQDTKPANRCCLLRHLLRLYLDRVFKNYQTPDHYTLRKISSLANSFLTIKKDLRLCHAHMTCHCGEEAMKKYSQILSHFEKLEPQAAVVKALGELDILLQWMEETE

System: HeLa229
Assay: HeLa229 cytotoxicity assay (MTT readout)
Type: cell-based
Settings: 72 hrs
Protocol: We tested IL-20 in a HeLa229 cytotoxicity assay to measure the ability of IL-20 to prevent cells from growing during normal growth conditions. We used MTT reagent (Promega, Madison, WI USA) as our detection and readout for this inhibition assay. Procedure of a cytotoxicity assay:
Day 1—Plate cells out in complete growth media (with serum) at 5000 cells/well in a 96 well format and let them incubate overnight at 37 degrees and 5% CO2.
Day 2—Dump off media and add a dose response of appropriate ligands in complete growth media (IL-20, zmda1, and MDA7 at 10, 100, and 1000 ng/ml.), along with a positive control retinoic acid (100 uM) in complete growth media, while leaving some wells in complete growth media as controls of how the cells normally grow under normal conditions. Put the cells in incubator and let the assay go for 72 hrs.
Day 5—Add 15 ul/well of MTT reagent, let cells inc. for 4 hrs., then add 100 ul of stop solution, let cells inc. for an additional 1 hr., then read the plate on a multilabel counter (Victor2, PerkinElmer Life Sciences Inc., Boston). The MTT protocol will give you two readings, one at a 650 wavelength (background) and one at a 572 wavelength. Subtract the 650 reading from the 572 reading to get your actual output. These numbers are averaged and converted to a % inhibition value.

| Molecule | inhibition at 100 µM (Homo sapiens, HeLa 229, HeLa229 cells, retinoic acid 100 uM (positive control), read-out: inhibition of growth) [%] | maximal inhibition of growth (HeLa229 cells, IL-20 dose response 10, 100, and 1000 ng/ml) [%] |
| --- | --- | --- |
| CC1=C(/C=C/C(C)=C/C=C/C(C)=C/C(=O)O)C(C)(C)CCC1 [Retnoic Acid, retinoic acid] | 53 | – |
| B1 | – | 20 |
